Experimental data from ChEMBL document CHEMBL3885881, “DrugMatrix”.

Species: Rattus norvegicus
Test: DrugMatrix - Regimen: Daily Repeat
Format: toxicity, organism-based, Sprague-Dawley
Design: regimen Daily Repeat, gender Male, age 6-8 weeks
Conditions: in vivo, sc, route subcutaneous, […]; for ABSOLUTE BASOPHIL / ABSOLUTE EOSINOPHIL / ABSOLUTE LYMPHOCYTE / ABSOLUTE MONOCYTE / ABSOLUTE SEGMENTED NEUTROPHIL / BASOPHIL / EOSINOPHIL / ERYTHROCYTE COUNT / HEMATOCRIT / HEMOGLOBIN / LEUKOCYTE COUNT / LYMPHOCYTE / MEAN CORPUSCULAR HEMOGLOBIN / MEAN CORPUSCULAR HEMOGLOBIN CONCENTRATION / MEAN CORPUSCULAR VOLUME / MONOCYTE / NEUTROPHIL / NUCLEATED RED BLOOD CELLS / PLATELET COUNT: tissue Blood; for ALANINE AMINOTRANSFERASE / ALBUMIN / ALKALINE PHOSPHATASE / ASPARTATE AMINOTRANSFERASE / BLOOD UREA NITROGEN / CARBON DIOXIDE / CHLORIDE / CHOLESTEROL / CREATINE PHOSPHOKINASE / CREATININE / GLUCOSE / LACTATE DEHYDROGENASE / LIPASE / PHOSPHORUS / POTASSIUM / SODIUM / TOTAL BILIRUBIN / TOTAL PROTEIN / URIC ACID: tissue Plasma
[1] = 0 mg/kg, 72 h, dose level Control, time 3 day
[2] = 0 mg/kg, 120 h, dose level Control, time 5 day
[3] = 2 mg/kg, 72 h, dose level Low, time 3 day

SMILES: CCC(=O)O[C@]1(C(=O)CCl)[C@@H](C)C[C@H]2[C@@H]3CCC4=CC(=O)C=C[C@]4(C)[C@@]3(F)[C@@H](O)C[C@@]21C [CLOBETASOL PROPIONATE]
- ABSOLUTE BASOPHIL [1]: 0 CELLS/uL
- ABSOLUTE EOSINOPHIL [1]: 42.67 CELLS/uL
- ABSOLUTE LYMPHOCYTE [1]: 10202 CELLS/uL
- ABSOLUTE MONOCYTE [1]: 261.5 CELLS/uL
- ABSOLUTE SEGMENTED NEUTROPHIL [1]: 2193.83 CELLS/uL
- BASOPHIL [1]: 0%
- EOSINOPHIL [1]: 0.33%
- ERYTHROCYTE COUNT [1]: 5.63 x10E6/uL
- HEMATOCRIT [1]: 35.35%
- HEMOGLOBIN [1]: 13.07 G/DL
- LEUKOCYTE COUNT [1]: 12.7 x10E3/uL
- LYMPHOCYTE [1]: 81.17%
- MEAN CORPUSCULAR HEMOGLOBIN [1]: 23.23 pg
- MEAN CORPUSCULAR HEMOGLOBIN CONCENTRATION [1]: 36.97 G/DL
- MEAN CORPUSCULAR VOLUME [1]: 62.82 fL
- MONOCYTE [1]: 2%
- NEUTROPHIL [1]: 16.5%
- NUCLEATED RED BLOOD CELLS [1]: 0 /100WBC
- PLATELET COUNT [1]: 1180.33 x10E3/uL
- ALANINE AMINOTRANSFERASE [1]: 48.67 u/L
- ALBUMIN [1]: 4.08 G/DL
- ALKALINE PHOSPHATASE [1]: 360.67 u/L
- ASPARTATE AMINOTRANSFERASE [1]: 85.5 u/L
- BLOOD UREA NITROGEN [1]: 17.83 mg/dL
- CARBON DIOXIDE [1]: 26.17 mmol/L
- CHLORIDE [1]: 101.83 MEQ/L
- CHOLESTEROL [1]: 71 mg/dL
- CREATINE PHOSPHOKINASE [1]: 515.17 u/L
- CREATININE [1]: 0.22 mg/dL
- GLUCOSE [1]: 192.5 mg/dL
- LACTATE DEHYDROGENASE [1]: 214.67 u/L
- LIPASE [1]: 8.5 u/L
- PHOSPHORUS [1]: 12.95 mg/dL
- POTASSIUM [1]: 6.39 MEQ/L
- SODIUM [1]: 142.38 MEQ/L
- TOTAL BILIRUBIN [1]: 0.18 mg/dL
- TOTAL PROTEIN [1]: 5.95 G/DL
- URIC ACID [1]: 1.83 mg/dL
- ABSOLUTE BASOPHIL [2]: 0 CELLS/uL
- ABSOLUTE EOSINOPHIL [2]: 188.5 CELLS/uL
- ABSOLUTE LYMPHOCYTE [2]: 12360.83 CELLS/uL
- ABSOLUTE MONOCYTE [2]: 64.33 CELLS/uL
- ABSOLUTE SEGMENTED NEUTROPHIL [2]: 1986.33 CELLS/uL
- BASOPHIL [2]: 0%
- EOSINOPHIL [2]: 1.33%
- ERYTHROCYTE COUNT [2]: 5.52 x10E6/uL
- HEMATOCRIT [2]: 35.82%
- HEMOGLOBIN [2]: 13.25 G/DL
- LEUKOCYTE COUNT [2]: 14.6 x10E3/uL
- LYMPHOCYTE [2]: 84.5%
- MEAN CORPUSCULAR HEMOGLOBIN [2]: 24.05 pg
- MEAN CORPUSCULAR HEMOGLOBIN CONCENTRATION [2]: 36.98 G/DL
- MEAN CORPUSCULAR VOLUME [2]: 64.97 fL
- MONOCYTE [2]: 0.5%
- NEUTROPHIL [2]: 13.67%
- NUCLEATED RED BLOOD CELLS [2]: 0 /100WBC
- PLATELET COUNT [2]: 1297.83 x10E3/uL
- ALANINE AMINOTRANSFERASE [2]: 51.17 u/L
- ALBUMIN [2]: 4.08 G/DL
- ALKALINE PHOSPHATASE [2]: 393.17 u/L
- ASPARTATE AMINOTRANSFERASE [2]: 111 u/L
- BLOOD UREA NITROGEN [2]: 18.17 mg/dL
- CARBON DIOXIDE [2]: 25 mmol/L
- CHLORIDE [2]: 105.17 MEQ/L
- CHOLESTEROL [2]: 65.5 mg/dL
- CREATINE PHOSPHOKINASE [2]: 911.5 u/L
- CREATININE [2]: 0.21 mg/dL
- GLUCOSE [2]: 183 mg/dL
- LACTATE DEHYDROGENASE [2]: 189 u/L
- LIPASE [2]: 8.33 u/L
- PHOSPHORUS [2]: 12.78 mg/dL
- POTASSIUM [2]: 6.05 MEQ/L
- SODIUM [2]: 144.57 MEQ/L
- TOTAL BILIRUBIN [2]: 0.25 mg/dL
- TOTAL PROTEIN [2]: 5.83 G/DL
- URIC ACID [2]: 1.58 mg/dL
- ABSOLUTE BASOPHIL [3]: 0 CELLS/uL
- ABSOLUTE EOSINOPHIL [3]: 0 CELLS/uL
- ABSOLUTE LYMPHOCYTE [3]: 788.33 CELLS/uL
- ABSOLUTE MONOCYTE [3]: 9 CELLS/uL
- ABSOLUTE SEGMENTED NEUTROPHIL [3]: 1836 CELLS/uL
- BASOPHIL [3]: 0%
- EOSINOPHIL [3]: 0%
- ERYTHROCYTE COUNT [3]: 5.93 x10E6/uL
- HEMATOCRIT [3]: 37.1%
- HEMOGLOBIN [3]: 13.23 G/DL
- LEUKOCYTE COUNT [3]: 2.63 x10E3/uL
- LYMPHOCYTE [3]: 30%
- MEAN CORPUSCULAR HEMOGLOBIN [3]: 22.33 pg
- MEAN CORPUSCULAR HEMOGLOBIN CONCENTRATION [3]: 35.67 G/DL
- MEAN CORPUSCULAR VOLUME [3]: 62.57 fL
- MONOCYTE [3]: 0.33%
- NEUTROPHIL [3]: 69.67%
- NUCLEATED RED BLOOD CELLS [3]: 0 /100WBC
- PLATELET COUNT [3]: 1219.67 x10E3/uL
- ALANINE AMINOTRANSFERASE [3]: 121.33 u/L
- ALBUMIN [3]: 4.93 G/DL
- ALKALINE PHOSPHATASE [3]: 505.33 u/L
- ASPARTATE AMINOTRANSFERASE [3]: 281.67 u/L
- BLOOD UREA NITROGEN [3]: 25.67 mg/dL
- CARBON DIOXIDE [3]: 21.33 mmol/L
- CHLORIDE [3]: 99.33 MEQ/L
- CHOLESTEROL [3]: 138.33 mg/dL
- CREATINE PHOSPHOKINASE [3]: 1714.67 u/L
- CREATININE [3]: 0.33 mg/dL
- GLUCOSE [3]: 547 mg/dL
- LACTATE DEHYDROGENASE [3]: 291 u/L
- LIPASE [3]: 10 u/L
- PHOSPHORUS [3]: 12.6 mg/dL
- POTASSIUM [3]: 5.98 MEQ/L
- SODIUM [3]: 140.33 MEQ/L
- TOTAL BILIRUBIN [3]: 0.2 mg/dL
- TOTAL PROTEIN [3]: 7.07 G/DL
- URIC ACID [3]: 2.33 mg/dL
